Measurements from paper PMC4837341, “Drug target identification using network analysis: Taking active components in Sini decoction as an example” (Scientific Reports, 2016).

Target: T1, TNF-α (recombinant mouse TNF-α) (Mus musculus, UniProt P06804)
T1 construct: recombinant, purchased from Sigma; amine-coupled to CM5 chip
T1 sequence (P06804 80-235): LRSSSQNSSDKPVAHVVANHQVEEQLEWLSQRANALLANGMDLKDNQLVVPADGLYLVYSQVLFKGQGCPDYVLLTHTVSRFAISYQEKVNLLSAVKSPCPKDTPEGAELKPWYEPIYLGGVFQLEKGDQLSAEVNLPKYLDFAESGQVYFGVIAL
Assay: SPR (BIAcore T200, TNF-α immobilised on CM5, […] model)
Format: binding

Row | SMILES | Kd
1 | O=c1c(O)c(-c2ccc(O)c(O)c2)oc2cc(O)cc(O)c12 [H11, Quercetin] | 35 µM
2 | Oc1ccc(CC2NCCc3cc(O)c(O)cc32)cc1 (centres unmarked) [S39, Higenamine] | 67 µM
